Measured values taken from publication PMC11736144, “A sleepy cannabis constituent: cannabinol and its active metabolite influence sleep architecture in rats” (Neuropsychopharmacology, 2024).
Like-named read-outs stand apart in the source and are kept apart here.

Legend:
male Long-Evans rats [1] = test: Repeated CBN dosing (15 days) polysomnography in rats; assay type: in vivo, rat; conditions: CBN 10 mg/kg IP daily for 15 days
Procedure: In the repeated dosing experiment, eight rats were randomly assigned to vehicle condition and eight to the CBN 10 mg/kg condition. Rats were administered the same treatment at ZT13 each day for 15 days, however, telemetry recordings were taken on days 1, 8, and 15 of respective treatments, and the response was compared between subjects.

[2] = Pharmacokinetic analysis of CBN and metabolites in rat plasma and brain (LC-MS/MS); assay type: in vivo
Procedure: Rats received 10 mg/kg CBN IP at approximately ZT13. Rats were then anesthetized with isoflurane at selected ZT points (13, 13.5, 14, 15, 17, 19, and 21) and blood was collected by terminal cardiac puncture. Brains were harvested, snap frozen on dry ice and plasma was isolated via centrifugation at 9000 × g for 10 min at 4 °C. All tissues were stored at −80 °C until analysis. CBN and metabolite concentrations in plasma and brain samples were assayed by liquid chromatography-tandem mass spectrometry (LC–MS/MS) using a using a Shimadzu Nexera LC-30AD UHPLC system coupled to a Shimadzu SPD-20AV photodiode array detector and a Shimadzu LC–MS-8040 triple-quadrupole mass spectrometer, equipped with an electrospray ionization (ESI) source (Shimadzu Corp.; Kyoto, Japan) as described previously.
LC-MS/MS. Plasma samples (50 µL) were spiked with internal standard (12.5 µg/mL d3-THC, 5 µL) and protein precipitation was achieved by vortex-mixing with a 3x volume of ice-cold acetonitrile. The organic layer was isolated by centrifugation (6000 g for 10 min, 4 °C) and evaporated to dryness using N2 gas. Samples were reconstituted in acetonitrile (90 µL) and 0.1% ammonium formate in water (300 µL) for supported-liquid extraction (SLE) using dichloromethane and methyl tert-butyl ether Biotage Isolute SLE+ columns (Uppsala, Sweden) as previously described. Brain samples were prepared as described for plasma samples with minor modifications. Briefly, each half brain was homogenised in methanol: water (2:1, 10x, w/v) and spiked with d3-THC as an internal standard. Homogenates were centrifuged (20,000 g for 30 min, 4 °C). Supernatants were then extracted and prepared as described above.
Quantification of CBN, 11-OH-CBN and 11-COOH-CBN in plasma and brain samples was performed by comparing experimental samples to eight-point standard curves prepared with known amounts of cannabinoid. Plasma and brain concentrations at each time point were averaged and pharmacokinetic parameters were calculated by noncompartmental analysis. Elimination rate constants were determined by linear regression of the terminal component of the concentration-time curve using GraphPad Prism 8.2 (La Jolla, USA). The log-linear trapezoidal method was used to calculate the area under concentration-time curve using equations described previously.

human CB2 receptors = biological target: T1, human CB2 receptors (Homo sapiens, UniProt P34972); test: Membrane potential (GIRK) assay in AtT20 cells, human CB2; assay type: cell-based; conditions: at 10 µM; normalized to 1 µM CP 55,940
T1 construct: expressed in transfected cells; host or cells: mouse AtT20 FlpIn cells
T1 sequence (P34972 whole entry): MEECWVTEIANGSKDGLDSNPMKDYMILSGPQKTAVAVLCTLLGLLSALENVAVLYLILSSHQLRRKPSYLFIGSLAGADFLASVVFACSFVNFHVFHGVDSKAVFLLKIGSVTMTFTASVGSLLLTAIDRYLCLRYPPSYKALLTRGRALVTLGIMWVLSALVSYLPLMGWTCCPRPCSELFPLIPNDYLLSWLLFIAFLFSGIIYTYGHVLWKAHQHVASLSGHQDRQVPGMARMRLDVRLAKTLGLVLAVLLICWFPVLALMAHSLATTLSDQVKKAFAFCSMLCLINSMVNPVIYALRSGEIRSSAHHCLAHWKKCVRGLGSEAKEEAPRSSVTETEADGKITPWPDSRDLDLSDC

[3] = tested on: non-clinical sample of poor sleepers; set-up: method as in PMID 37796540; conditions: 20 mg CBN alone, self-reported measures, vs placebo; cited from earlier work
rats [4] = tested on: rats; set-up: method as in PMID 168604; conditions: cited from earlier work
rats [5] = conditions: cited from earlier work
[6] = cited from earlier work
[7] = rats, oral vs IP of the current study; cited from earlier work
human CB1 receptors [8] = biological target: T2, human CB1 receptors (Homo sapiens, UniProt P21554); set-up: expressed in transfected cells; method as in PMID 7565624, PMID 9690851; conditions: some studies; cited from earlier work
T2 sequence (P21554 whole entry): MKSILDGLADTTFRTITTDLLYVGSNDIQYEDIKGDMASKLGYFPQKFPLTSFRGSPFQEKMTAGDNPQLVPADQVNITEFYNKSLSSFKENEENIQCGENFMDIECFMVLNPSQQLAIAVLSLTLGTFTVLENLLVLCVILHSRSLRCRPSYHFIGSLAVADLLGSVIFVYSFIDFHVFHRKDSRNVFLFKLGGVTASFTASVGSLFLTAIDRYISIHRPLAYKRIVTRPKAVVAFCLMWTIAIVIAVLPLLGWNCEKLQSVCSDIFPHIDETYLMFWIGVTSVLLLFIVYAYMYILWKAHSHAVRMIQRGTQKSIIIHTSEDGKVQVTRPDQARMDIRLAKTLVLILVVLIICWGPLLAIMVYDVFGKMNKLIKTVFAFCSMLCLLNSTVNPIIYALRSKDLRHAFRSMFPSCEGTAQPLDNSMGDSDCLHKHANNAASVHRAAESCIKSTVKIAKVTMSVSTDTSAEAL

male Long-Evans rats [9] = test: Acute polysomnography (wireless EEG/EMG telemetry) in rats
human CB1 receptors [10] = biological target: T2, human CB1 receptors; test: cell-based; assay type: cell-based; set-up: expressed in transfected cells; host or cells: mouse AtT20 FlpIn cells
[11] = days 1, 8, 15, not subject to tolerance
[12] = rats, 10 and 30 mg/kg CBN IP, CBN 99.2% pure with 0.8% Δ8-THC, ref Järbe et al (1987)
[13] = acute IP at ZT13 vs vehicle, CBN 10, 30, 100 mg/kg, 11-OH-CBN 1, 3, 10 mg/kg
[14] = acute IP at ZT13 vs vehicle, CBN 10, 30, 100 mg/kg, zolpidem 10 mg/kg, 11-OH-CBN 1, 3, 10 mg/kg

CCCCCc1cc(O)c2c(c1)OC(C)(C)c1ccc(C)cc1-2 [CBN, cannabinol]
% NREM (male Long-Evans rats [1]; days 1, 8, 15): increased % NREM initially on days 1 and 8, however this effect was diminished by day 15 | % REM (male Long-Evans rats [1]; days 1, 8, 15): affected | % quiet wake (male Long-Evans rats [1]; days 1, 8, 15): affected | REM bout duration (male Long-Evans rats [1]; days 1, 8, 15): affected | REM bout number (male Long-Evans rats [1]; days 1, 8, 15): affected | total wake time (male Long-Evans rats [1]; days 1, 8, 15): decreased | NREM sleep onset latency (male Long-Evans rats [1]; days 1, 8, 15, main effect): increased | REM sleep onset latency (male Long-Evans rats [1]; days 1, 8, 15, main effect): increased | NREM bout duration (male Long-Evans rats [1]; [11]): increased | NREM bout number (male Long-Evans rats [1]; [11]): decreased | % active wake (male Long-Evans rats [1]; days 1, 8, 15, subject to tolerance): decreased | total sleep time over days (male Long-Evans rats [1]; recordings days 1, 8, 15, between-subjects vs vehicle, n = 8): increased | Tmax ([2]; ip, rat brain after CBN 10 mg/kg, read-out: brain Tmax): 2 h | Tmax ([2]; ip, rat plasma after CBN 10 mg/kg, read-out: plasma Tmax (converted)): 0.5 h | half-life ([2]; ip, rat, after CBN 10 mg/kg, similar in plasma and brain, read-out: half-life in plasma and brain (converted)): ~2 h | Brain AUC∞ ([2]; rat brain after CBN 10 mg/kg IP, analyte as labelled): 1623 pg hour/mg brain | Brain Cmax ([2]; rat brain after CBN 10 mg/kg IP, analyte as labelled, n = 4): 373 ± 26 pg/mg brain | half-life ([2]; rat brain after CBN 10 mg/kg IP, analyte as labelled, read-out: Brain t½ (converted)): 2.2 h | Brain Cmax ([2]; rat brain following systemic administration of CBN): 1.2 µM | Plasma AUC∞ ([2]; rat plasma after CBN 10 mg/kg IP, analyte as labelled): 775 ng·h/mL | Cmax ([2]; rat plasma after CBN 10 mg/kg IP, analyte as labelled, n = 4): 374 ± 34 ng/mL | half-life ([2]; rat plasma after CBN 10 mg/kg IP, analyte as labelled, read-out: Plasma t½ (converted)): 1.93 h | Brain/plasma ratio ([2]; rat, after CBN 10 mg/kg IP, analyte as labelled): ~2 | Kp ([2]; rat, brain and plasma, ip, 10 mg/kg, rat, after CBN 10 mg/kg IP, analyte as labelled, read-out: Brain/plasma ratio): 2.09 | Cmax ([2]; rat, plasma, intraperitoneal, rats, 10 mg/kg CBN dose): 374 ng/mL | activity at CB2 (human CB2 receptors): < 20% | number of awakenings and overall sleep disturbance [3]: significantly reduced | sleep onset latency [3]: did not influence | pentobarbital-induced sleep time (rats [4]): prolonged | body temperature or locomotor activity (rats [5]; CBN up to 80 mg/kg IP, ref Fernandes et al (1974)): did not influence | body temperature (rats [5]; [12]): reduced | locomotor activity (rats [5]; [12]): suppressed | highest plasma CBN concentration (Cmax) following cannabis smoking [6]: 11.6 ng/mL | plasma exposures (AUC), oral lower than intraperitoneal at the same dose [7]: ~5 fold | activity at human CB1 receptors (human CB1 receptors [8]): inactive | % NREM sleep compared to vehicle (male Long-Evans rats [9]; CBN 10 mg/kg and 100 mg/kg, various time points from ZT16–20): significantly increased | cumulative total sleep time (male Long-Evans rats [9]; CBN 10 mg/kg dose only, from ZT17): significantly increased | NREM delta power at specific time points (male Long-Evans rats [9]; CBN 30 mg/kg and 100 mg/kg at ZT17 and 18, zolpidem 10 mg/kg at ZT13 and 14): increase | NREM delta power (male Long-Evans rats [9]; EEG power spectra, overall effect, acute IP, CBN 10, 30, 100 mg/kg, zolpidem 10 mg/kg, 11-OH-CBN 1, 3, 10 mg/kg): Neither CBN nor zolpidem had robust effects | REM theta power (male Long-Evans rats [9]; EEG power spectra, acute IP, CBN 10, 30, 100 mg/kg, zolpidem 10 mg/kg, 11-OH-CBN 1, 3, 10 mg/kg): increased | delayed onset of action on % NREM sleep, time post-dosing (male Long-Evans rats [9]; acute IP at ZT13): 3 to 4 h | total sleep time (male Long-Evans rats [9]; acute IP at ZT13 (dark phase) vs vehicle, CBN 10, 30, 100 mg/kg, zolpidem 10 mg/kg, 11-OH-CBN 1, 3, 10 mg/kg, n = 8): increased | cumulative NREM time (male Long-Evans rats [9]; [13]): biphasic effect | cumulative REM time (male Long-Evans rats [9]; [13]): similarly influenced | % NREM sleep (male Long-Evans rats [9]; [14]): increased | % REM sleep (male Long-Evans rats [9]; [14]): initially suppressed % REM, before it increased % REM at ZT17-18 | % active wake (male Long-Evans rats [9]; [14]): decreased | % quiet wake (male Long-Evans rats [9]; [14]): affected | NREM sleep onset latency (male Long-Evans rats [9]; [14]): did not affect | REM bout duration (male Long-Evans rats [9]; [14]): initially decreased REM bout duration and then increased duration of REM bouts | REM bout number (male Long-Evans rats [9]; [14]): biphasically influenced | REM sleep onset latency (male Long-Evans rats [9]; [14]): increased | cumulative total sleep time (male Long-Evans rats [9]; [14]): biphasic effects | mean duration of NREM bouts per hour (male Long-Evans rats [9]; [14]): increased | number of NREM bouts per hour (male Long-Evans rats [9]; [14]): decreased | total wake time (male Long-Evans rats [9]; [14]): decreased | body temperature (male Long-Evans rats [9]; subcutaneous, telemetry, acute IP, CBN 10, 30, 100 mg/kg, zolpidem 10 mg/kg, 11-OH-CBN 1, 3, 10 mg/kg): did not robustly effect | locomotor activity counts (male Long-Evans rats [9]; telemetry, acute IP, CBN 10, 30, 100 mg/kg, zolpidem 10 mg/kg, 11-OH-CBN 1, 3, 10 mg/kg): decreased | EC50 (human CB1 receptors [10]): 3.98 µM | activity at CB1 receptors (in words) (human CB1 receptors [10]): low activity | Emax (human CB1 receptors [10]; AtT20, read-out: maximal response (Emax)): 29 ± 3%
